# Patent US11319299B2, “Substituted carboxamides as inhibitors of WDR5 protein-protein binding” (PROPELLON THERAPEUTICS INC., priority 2016, dated 2022)
# Molecular target: WDR5 (Homo sapiens (Human), UniProt P61964)
# Experiment: Surface Plasmon Resonance (SPR) assay, KD and residence time
# Assay type: binding
# Details: surface plasmon resonance (SPR) assay; read-out: WDR5 binding affinity (KD)
row,Kd,SMILES
1,106 nM,"Cc1ncc(C(=O)Nc2cc(-c3cnc(N4CCOCC4)nc3)c(F)cc2N2CCN(C)C(C)C2)s1 (stereo in doubt) [Example 195, N-[4-fluoro-5-(2-morpholin-4-ylpyrimidin-5-yl)-2-[(3R)-3,4-dimethylpiperazin-1-yl]phenyl]-2-methyl-1,3-thiazole-5-carboxamide]"
2,3.12 nM,"C[C@@H]1CN(c2cc(F)c(-c3cnc(N4CCOCC4)nc3)cc2NC(=O)c2cc(O)cc(C(F)(F)F)c2)C[C@H](C)N1C [Example 280, N-[4-fluoro-5-(2-morpholin-4-ylpyrimidin-5-yl)-2-[(3R,5S)-3,4,5-trimethylpiperazin-1-yl]phenyl]-3-hydroxy-5-(trifluoromethyl)benzamide]"
3,1.67 nM,"C[C@@H]1CN(c2cc(F)c(-c3ccc(OCC4CC4)nc3)cc2NC(=O)c2c[nH]c(=O)cc2C(F)F)C[C@H](C)N1C [Example 314, N-[5-[6-(cyclopropylmethoxy)pyridin-3-yl]-4-fluoro-2-[(3R,5S)-3,4,5-trimethylpiperazin-1-yl]phenyl]-4-(difluoromethyl)-6-oxo-1H-pyridine-3-carboxamide]"
4,0.244 nM,"C[C@@H]1CN(c2cc(F)c(-c3cnc(N(C)[C@@H]4CCOC4)nc3)cc2NC(=O)c2c[nH]c(=O)cc2C(F)(F)F)CCN1C (stereo in doubt) [Example 362, N-[4-fluoro-5-[2-[methyl-[(3R)-oxolan-3-yl]amino]pyrimidin-5-yl]-2-[(3R)-3,4-dimethylpiperazin-1-yl]phenyl]-6-oxo-4-(trifluoromethyl)-1H-pyridine-3-carboxamide]"
5,33.4 nM,"CC1CN(c2cc(F)c(-c3cnc(N4CCOCC4)nc3)cc2NC(=O)c2cnn(C)c2)CCN1C (stereo in doubt) [Example 121, N-[4-fluoro-5-(2-morpholin-4-ylpyrimidin-5-yl)-2-[(3R)-3,4-dimethylpiperazin-1-yl]phenyl]-1-methylpyrazole-4-carboxamide]"
6,2.08 nM,"CC1COCCN1c1ncc(-c2cc(NC(=O)c3c[nH]c(=O)cc3C(F)(F)F)c(N3C[C@@H](C)N(C)[C@@H](C)C3)cc2F)cn1 (stereo in doubt) [Example 338, N-[4-fluoro-5-[2-[(3R)-3-methylmorpholin-4-yl]pyrimidin-5-yl]-2-[(3S,5R)-3,4,5-trimethylpiperazin-1-yl]phenyl]-6-oxo-4-(trifluoromethyl)-1H-pyridine-3-carboxamide]"
7,6.33 nM,"C[C@@H]1CN(c2cc(F)c(C3=CCN(CCC(F)(F)F)CC3)cc2NC(=O)c2c[nH]c(=O)cc2C(F)(F)F)C[C@H](C)N1C [Example 152, N-[4-fluoro-2-[(3R,5S)-3,4,5-trimethylpiperazin-1-yl]-5-[1-(3,3,3-trifluoropropyl)-3,6-dihydro-2H-pyridin-4-yl]phenyl]-6-oxo-4-(trifluoromethyl)-1H-pyridine-3-carboxamide]"
8,14.7 nM,"COc1cc(F)cc(C(=O)Nc2cc(-c3cnc(N4CCOCC4)nc3)c(F)cc2N2C[C@@H](C)N(C)[C@@H](C)C2)c1 [Example 190, 3-fluoro-N-[4-fluoro-5-(2-morpholin-4-ylpyrimidin-5-yl)-2-[(3R,5S)-3,4,5-trimethylpiperazin-1-yl]phenyl]-5-methoxybenzamide]"
9,0.569 nM,"CC1CN(c2cc(F)c(-c3cnc(N4CCOCC4)nc3)cc2NC(=O)c2ccc(F)cc2C(F)(F)F)CCN1C (stereo in doubt) [Example 299, 4-fluoro-N-[4-fluoro-5-(2-morpholin-4-ylpyrimidin-5-yl)-2-[(3R)-3,4-dimethylpiperazin-1-yl]phenyl]-2-(trifluoromethyl)benzamide]"
10,> 200 nM,"CC(=O)Nc1cccc(C(=O)Nc2cc(-c3cnc(N4CCOCC4)nc3)c(F)cc2N2C[C@@H](C)N(C)[C@@H](C)C2)c1 [Example 115, 3-acetamido-N-[4-fluoro-5-(2-morpholin-4-ylpyrimidin-5-yl)-2-[(3R,5S)-3,4,5-trimethylpiperazin-1-yl]phenyl]benzamide]"
11,9 nM,"CC(C)CN1CC=C(c2cc(NC(=O)c3c[nH]c(=O)cc3C(F)(F)F)c(N3C[C@@H](C)N(C)[C@@H](C)C3)cc2F)CC1 [Example 150, N-[4-fluoro-5-[1-(2-methylpropyl)-3,6-dihydro-2H-pyridin-4-yl]-2-[(3R,5S)-3,4,5-trimethylpiperazin-1-yl]phenyl]-6-oxo-4-(trifluoromethyl)-1H-pyridine-3-carboxamide]"
12,0.685 nM,"C[C@@H]1CN(c2cc(F)c(C3=CCN(c4ncc(C=O)cn4)CC3)cc2NC(=O)c2c[nH]c(=O)cc2C(F)(F)F)C[C@H](C)N1C [Example 369, N-[4-fluoro-5-[1-(5-formylpyrimidin-2-yl)-3,6-dihydro-2H-pyridin-4-yl]-2-[(3R,5S)-3,4,5-trimethylpiperazin-1-yl]phenyl]-6-oxo-4-(trifluoromethyl)-1H-pyridine-3-carboxamide]"
13,1.66 nM,"C[C@@H]1CN(c2cc(F)c(-c3cnc(N4CCCN(C)CC4)nc3)cc2NC(=O)c2ccc(F)cc2C(F)(F)F)C[C@H](C)N1C [Example 203, 4-fluoro-N-[4-fluoro-5-[2-(4-methyl-1,4-diazepan-1-yl)pyrimidin-5-yl]-2-[(3R,5S)-3,4,5-trimethylpiperazin-1-yl]phenyl]-2-(trifluoromethyl)benzamide]"
14,2.51 nM,"C[C@@H]1CN(c2ncc(-c3cc(NC(=O)c4cn(C)c(=O)cc4C(F)(F)F)c(N4C[C@@H](C)N(C)[C@@H](C)C4)cc3F)cn2)C[C@H](C)O1 [Example 246, N-[4-fluoro-5-[2-[(2R,6S)-2,6-dimethylmorpholin-4-yl]pyrimidin-5-yl]-2-[(3S,5R)-3,4,5-trimethylpiperazin-1-yl]phenyl]-1-methyl-6-oxo-4-(trifluoromethyl)pyridine-3-carboxamide]"

row,SMILES,Kd
1,"CC1CN(c2cc(F)c(-c3ccc(N4CCOCC4)cc3)cc2NC(=O)c2nn(C)c3ccccc23)CCN1C (stereo in doubt) [Example 117, N-[4-fluoro-5-(4-morpholin-4-ylphenyl)-2-[(3R)-3,4-dimethylpiperazin-1-yl]phenyl]-1-methylindazole-3-carboxamide]",42.8 nM

# Same assay, conditions: surface plasmon resonance (SPR); read-out: WDR5 binding affinity (KD)
row,Kd,SMILES
1,1.96 nM,"C[C@@H]1CN(c2ccc(-c3cc(NC(=O)c4cn(C)c(=O)cc4C(F)(F)F)c(N4CCN(C)[C@@H](C)C4)cc3F)cn2)C[C@H](C)O1 (racemic) [Example 421, N-[4-fluoro-5-[6-[(2R,6S)-2,6-dimethylmorpholin-4-yl]pyridin-3-yl]-2-[(3R)-3,4-dimethylpiperazin-1-yl]phenyl]-1-methyl-6-oxo-4-(trifluoromethyl)pyridine-3-carboxamide]"
2,1 nM,"C[C@@H]1CN(c2cc(F)c(-c3ccc(C(N)=O)c(F)c3)cc2NC(=O)c2c[nH]c(=O)cc2C(F)F)C[C@H](C)N1C [Example 553, N-[5-(4-carbamoyl-3-fluorophenyl)-4-fluoro-2-[(3R,5S)-3,4,5-trimethylpiperazin-1-yl]phenyl]-4-(difluoromethyl)-6-oxo-1H-pyridine-3-carboxamide]"
3,1.03 nM,"CC1CN(c2cc(F)c(C3=CCN(C(=O)OC4CC(F)(F)C4)CC3)cc2NC(=O)c2c[nH]c(=O)cc2C(F)F)CCN1C (stereo in doubt) [Example 703, (3,3-difluorocyclobutyl) 4-[5-[[4-(difluoromethyl)-6-oxo-1H-pyridine-3-carbonyl]amino]-2-fluoro-4-[(3R)-3,4-dimethylpiperazin-1-yl]phenyl]-3,6-dihydro-2H-pyridine-1-carboxylate]"
4,1.94 nM,"C[C@@H]1CN(c2cc(F)c(C3=CCN(C(=O)N4CCCC4)C3)cc2NC(=O)c2c[nH]c(=O)cc2C(F)F)C[C@H](C)N1C [Example 612, 4-(Difluoromethyl)-N-(4-fluoro-5-(1-(pyrrolidine-1-carbonyl)-2,5-dihydro-1H-pyrrol-3-yl)-2-((3S,5R)-3,4,5-trimethylpiperazin-1-yl)phenyl)-6-oxo-1,6-dihydropyridine-3-carboxamide]"
5,1.32 nM,"C[C@@H]1CN(c2cc(F)c(C3=CCCN(c4ncccn4)C3)cc2NC(=O)c2c[nH]c(=O)cc2C(F)F)C[C@H](C)N1C [Example 644, 4-(difluoromethyl)-N-[4-fluoro-5-(1-pyrimidin-2-yl-3,6-dihydro-2H-pyridin-5-yl)-2-[(3R,5S)-3,4,5-trimethylpiperazin-1-yl]phenyl]-6-oxo-1H-pyridine-3-carboxamide]"
6,0.733 nM,"CC1CN(c2cc(F)c(-c3ccnc(N4CCOCC4)n3)cc2NC(=O)c2ccc(F)cc2C(F)(F)F)CCN1C (stereo in doubt) [Example 614, 4-fluoro-N-[4-fluoro-5-(2-morpholin-4-ylpyrimidin-4-yl)-2-[(3R)-3,4-dimethylpiperazin-1-yl]phenyl]-2-(trifluoromethyl)benzamide]"
7,2.28 nM,"C[C@@H]1COCCN1c1ncc(-c2cc(NC(=O)c3c[nH]c(=O)cc3C(F)(F)F)c(N3CCN(C)[C@@H](C)C3)cc2F)cn1 [Example 468, N-[4-fluoro-2-[(3S)-3,4-dimethylpiperazin-1-yl]-5-[2-[(3R)-3-methylmorpholin-4-yl]pyrimidin-5-yl]phenyl]-6-oxo-4-(trifluoromethyl)-1H-pyridine-3-carboxamide]"
8,2.59 nM,"C[C@@H]1CN(c2cc(F)c(-c3csc(CN4CCOCC4)n3)cc2NC(=O)c2c[nH]c(=O)cc2C(F)(F)F)C[C@H](C)N1C [Example 713, N-[4-fluoro-5-[2-(morpholin-4-ylmethyl)-1,3-thiazol-4-yl]-2-[(3R,5S)-3,4,5-trimethylpiperazin-1-yl]phenyl]-6-oxo-4-(trifluoromethyl)-1H-pyridine-3-carboxamide]"
9,2.92 nM,"C[C@@H]1CN(c2cc(F)c(-c3cnc(N4CCOC(C)(C)C4)nc3)cc2NC(=O)c2ccc(F)cc2C(F)(F)F)C[C@H](C)N1C [Example 559, N-[5-[2-(2,2-dimethylmorpholin-4-yl)pyrimidin-5-yl]-4-fluoro-2-[(3R,5S)-3,4,5-trimethylpiperazin-1-yl]phenyl]-4-fluoro-2-(trifluoromethyl)benzamide]"
10,0.474 nM,"C[C@@H]1CN(c2cc(F)c(C3=CCN(c4ncc(CN5CCOCC5)cn4)C3)cc2NC(=O)c2c[nH]c(=O)cc2C(F)(F)F)C[C@H](C)N1C [Example 458, N-[4-fluoro-5-[1-[5-(morpholin-4-ylmethyl)pyrimidin-2-yl]-2,5-dihydropyrrol-3-yl]-2-[(3R,5S)-3,4,5-trimethylpiperazin-1-yl]phenyl]-6-oxo-4-(trifluoromethyl)-1H-pyridine-3-carboxamide]"
